What was measured:
[1] = target: CRBN-pomalidomide (Alexa488DDB1ΔB-CRBN-pomalidomide-biotinIKZF1 ZF1-2-3) (Homo sapiens, UniProt Q96SW2)
[2] = test system: human C2H2 ZF library in HEK293T cells; assay: C2H2 zinc finger library screen; assay type: cell-based; conditions: FDR <0.01, 5,611 ZFs assayed, 1 μM, 20 hours
[3] = test system: ZFs that bound CRBN-pomalidomide in the biochemical assay; assay type: cell-based, human; conditions: WIZ ZF7, cells
[4] = target: IKZF2 ZF2 (Homo sapiens, UniProt Q96SW2+Q9UKS7); assay: Degradation reporter analysis of IKZF2 ZF2; assay type: cell-based
[5] = test system: endogenous, full-length WIZ; conditions: WSU-DLCL2 and TMD8 cells; cited from earlier work
[6] = target: human C2H2 ZF library in HEK293T cells (Homo sapiens, UniProt Q9UKS7); assay: C2H2 zinc finger library screen; assay type: cell-based; conditions: 1 μM, 20 hours
Sequence of human C2H2 ZF library in HEK293T cells (Homo sapiens, UniProt Q9UKS7) (Q9UKS7 140-162): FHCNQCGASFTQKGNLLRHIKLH
Sequence of human C2H2 ZF library in HEK293T cells (Homo sapiens, UniProt Q9UKS7) (Q96SW2 whole entry partner): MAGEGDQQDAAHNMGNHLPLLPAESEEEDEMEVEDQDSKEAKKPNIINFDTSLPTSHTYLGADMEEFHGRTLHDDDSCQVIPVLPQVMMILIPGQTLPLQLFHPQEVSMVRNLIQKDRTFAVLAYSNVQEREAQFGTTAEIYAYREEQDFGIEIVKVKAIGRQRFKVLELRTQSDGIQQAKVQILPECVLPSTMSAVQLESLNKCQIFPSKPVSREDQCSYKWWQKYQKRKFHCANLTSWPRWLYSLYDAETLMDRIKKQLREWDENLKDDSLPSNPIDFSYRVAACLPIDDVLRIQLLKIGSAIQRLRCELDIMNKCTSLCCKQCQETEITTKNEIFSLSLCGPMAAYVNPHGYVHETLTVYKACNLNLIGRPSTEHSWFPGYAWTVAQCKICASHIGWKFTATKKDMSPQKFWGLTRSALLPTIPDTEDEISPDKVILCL

Sequence of IKZF2 ZF2 (Q96SW2 whole entry): as the sequence (Q96SW2 whole entry partner) above
Sequence of IKZF2 ZF2 (Q16531 2-1140 partner limits assumed): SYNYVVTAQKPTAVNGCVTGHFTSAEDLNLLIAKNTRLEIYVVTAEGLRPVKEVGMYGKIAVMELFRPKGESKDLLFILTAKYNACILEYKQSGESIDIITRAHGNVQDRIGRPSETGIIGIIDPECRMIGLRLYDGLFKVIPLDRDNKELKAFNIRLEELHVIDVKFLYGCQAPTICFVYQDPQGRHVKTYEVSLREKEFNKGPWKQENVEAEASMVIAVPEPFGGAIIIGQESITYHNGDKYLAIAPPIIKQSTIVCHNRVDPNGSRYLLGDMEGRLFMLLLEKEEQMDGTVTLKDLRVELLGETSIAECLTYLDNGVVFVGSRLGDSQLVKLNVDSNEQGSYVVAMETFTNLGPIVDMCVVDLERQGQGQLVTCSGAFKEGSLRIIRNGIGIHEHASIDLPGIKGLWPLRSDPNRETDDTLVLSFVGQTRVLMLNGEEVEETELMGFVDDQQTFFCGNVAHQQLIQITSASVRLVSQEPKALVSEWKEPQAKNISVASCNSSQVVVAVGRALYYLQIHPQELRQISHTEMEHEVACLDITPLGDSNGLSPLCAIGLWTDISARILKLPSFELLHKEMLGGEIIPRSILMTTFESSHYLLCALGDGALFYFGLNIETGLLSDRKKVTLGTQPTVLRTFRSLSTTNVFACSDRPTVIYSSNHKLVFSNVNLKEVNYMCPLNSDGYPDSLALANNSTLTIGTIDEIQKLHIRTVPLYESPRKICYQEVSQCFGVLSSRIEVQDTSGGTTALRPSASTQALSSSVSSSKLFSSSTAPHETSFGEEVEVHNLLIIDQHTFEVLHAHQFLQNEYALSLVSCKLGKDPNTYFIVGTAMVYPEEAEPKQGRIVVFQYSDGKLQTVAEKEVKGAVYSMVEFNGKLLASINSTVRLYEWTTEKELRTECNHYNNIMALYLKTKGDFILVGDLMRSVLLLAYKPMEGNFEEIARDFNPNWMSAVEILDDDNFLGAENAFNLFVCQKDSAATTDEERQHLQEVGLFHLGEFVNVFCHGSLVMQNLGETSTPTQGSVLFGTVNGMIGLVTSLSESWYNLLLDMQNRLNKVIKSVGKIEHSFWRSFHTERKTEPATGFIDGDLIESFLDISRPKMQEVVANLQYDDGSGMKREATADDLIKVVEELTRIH
Sequence of CRBN-pomalidomide (Alexa488DDB1ΔB-CRBN-pomalidomide-biotinIKZF1 ZF1-2-3) (Q96SW2 whole entry, stated change not applied): as the sequence (Q96SW2 whole entry partner) above

Structure (SMILES) | factor of decrease in binding affinity, ZF2-ZF1 versus ZF2-ZF3 [1] | number of C2H2 ZFs depleted [2] | degradation of WIZ ZF7 in the degradation reporter [3] | degradation of IKZF2 ZF2 (in words) [4] | degradation of endogenous, full-length WIZ [5] | degradation of IKZF2 ZF2 in the C2H2 ZF library screen [6] | degradation of the IKZF2 ZF2 reporter ([4]; validation experiments)
Nc1cccc2c1C(=O)N(C1CCC(=O)NC1=O)C2=O (stereo not shown) [pomalidomide] | 6 | 11 | partial degradation | not degraded |  |  | 
Cc1nc2cccc(N)c2c(=O)n1C1CCC(=O)NC1=O (stereo not shown) [CC-122] |  |  |  | not degraded | confirmed degradation |  | 
O=C1CC[C@H](N2Cc3c(OCc4ccc(CN5CCOCC5)cc4)cccc3C2=O)C(=O)N1 [CC-220] |  |  |  | efficiently degraded |  | selectively degraded | more than 40%
Nc1cccc2c1CN(C1CCC(=O)NC1=O)C2=O (stereo not shown) [lenalidomide] |  |  |  |  | confirmed degradation |  | 

Source: publication PMC6326779 (Science (New York, N.Y.), 2018)
